Data set [1] is described as follows: Cytotoxicity in RAW cells (Resazurin). In kind it is cell-based, murine. Particulars: mouse. The procedure:
Evaluations against RAW cells: The Raw 264.7 murine macrophage cell line was purchased from the American Type Culture Collection (ATCC-TIB71). The cells were maintained in DMEM-HG medium supplemented with 10% fetal bovine serum, 100 U/mL of penicillin and 100 μg/mL of streptomycin, and sodium bicarbonate (2.2 g/L) in humidified atmosphere at 37 °C with 5% CO2. Samples were prepared as described above and added (in 100 μL DMSO) at different concentrations (6.2–200 μg/mL). Medium blank, control drugs and cell growth controls were included to evaluate cell viability. The plates were incubated for 72 h at 37 °C with 5% CO2. After incubation for the indicated time, the cells were washed, after which 10 μL of Resazurin reagent (2.0 mM) was added. They were further incubated at 37 °C for 3 h in a humidified incubator. The IC50 values were assessed using a fluorometric reader (540 nm excitation, 590 nm emission) and the Gen5 software. All assays were performed in triplicate.

For data set [2], the system named is L. amazoniensis promastigotes. Description: Leishmanicidal activity against L. amazoniensis promastigotes (XTT). Particulars: for IC50: Leishmania amazonensis, 72 h, read-out: L. amazoniensis IC50. How it is done:
(§1) All strains were cultured in Schneider’s insect medium, (pH 6.2) supplemented with 10% FBS and incubated at 26 °C. Medium changes were made every 72 h to maintain a viable parasitic population. Leishmanicidal activity was determined according to Williams with some modifications. Samples were dissolved in DMSO (maximum final concentration 1%) at 10 mg/mL. Promastigotes in logarithmic phase of growth, at the concentration 3 × 10^6 parasites/mL, were distributed (100 μL/well) in 96-well flat bottom microtiter plates. Samples with different concentrations (3.1–100 μg/mL) were added (100 μL). […] Assays were performed in triplicates. The microwell plates were incubated for 72 h at 26 °C. After incubation, a solution of XTT (1 mg/mL) in PBS (pH 7.0 at 37 °C) with PMS (0.06 mg/mL) was added (50 μL/well), and incubated for 3 h at 26 °C. The optical density of each well was measured and the IC50 values calculated.
Background: Formazan colour is commonly taken as a measure of viable cells.

Another data set has as its system T. cruzi epimastigotes. Description: Trypanocidal activity against T. cruzi epimastigotes (XTT). Particulars: for IC50: Trypanosoma cruzi, epimastigotes, 72 h at 26 °C, XTT, triplicates, read-out: T. cruzi IC50; for selectivity ratio at 72 h: mouse (RAW 264.7 cells) / Trypanosoma cruzi (epimastigotes), RAW cell IC50 / T. cruzi IC50, read-out: T. cruzi SI (selectivity index, cytotoxicity/anti-protozoal activity). The class given is cell-based, Trypanosoma cruzi. The procedure: Trypanocidal activity was determined according to Muelas-Serrano with some modifications. […] Benznidazol (3.1–100 μg/mL) was used as the control drug. Assays were performed in triplicates.

Data set [3] deals with L. brasiliensis promastigotes. Description: Leishmanicidal activity against L. brasiliensis promastigotes (XTT). Conditions: for IC50: 72 h, read-out: L. brasiliensis IC50. The procedure:
as §1, with “Evaluations against Leishmania parasites: Promastigotes of Leishmania-Leishmania: L. amazonensis, Clone 1, NHOM-BR-76-LTB-012 (Lma, donated by the Paul Sabatier Université, France) and Leishmania-Viannia: L. braziliensis M2904 C192 RJA (M2904, donated by Dr. Jorge Arévalo from Universidad Peruana Cayetano Heredia, Peru). All” for “All”

Where [4] appears, read: L. amazoniensis SI (selectivity index, cytotoxicity/anti-protozoal activity), RAW cell IC50 / L. amazoniensis IC50.
Where [5] appears, read: L. brasiliensis SI (selectivity index, cytotoxicity/anti-protozoal activity), RAW cell IC50 / L. brasiliensis IC50.

Experimental findings from publication PMC7412453, “SAR:s for the Antiparasitic Plant Metabolite Pulchrol. 1. The Benzyl Alcohol Functionality” (Molecules, 2020) are described below.

Each structure is given as a SMILES string. Read-outs that look alike come from different tables or passages of the source.

With `COc1ccc2c(c1)-c1cc(COC(=O)CCC3CCCC3)ccc1C(C)(C)O2` [4h, (2-Methoxy-6,6-dimethyl-6H-benzo[c]chromen-9-yl)methyl 3-cyclopentylpropanoate], 50.7 ± 17.7 µM corresponded to half-maximal inhibition in data set [1] (IC50 at 72 h). Further, the selectivity ratio at 72 h worked out at 1.6 in data set [2], 6.1 with T. cruzi epimastigotes and 0.4 in data set [3]. For the same molecule, the IC50 (in general, the concentration that inhibits the measured activity by half) in data set [2] turned out to be 30.9 ± 3 µM; in the data set with T. cruzi epimastigotes, 8.4 ± 3.3 µM; in data set [3] it was 122 ± 27.9 µM.
Molecule `COc1ccc2c(c1)-c1cc(COC(=O)C3CCCCC3)ccc1C(C)(C)O2` [4i, (2-Methoxy-6,6-dimethyl-6H-benzo[c]chromen-9-yl)methyl cyclohexanecarboxylate] had an IC50 at 72 h in data set [1] of 51.3 ± 8.2 µM. For the same molecule, the selectivity ratio at 72 h in data set [2] was found to be 1.3; with T. cruzi epimastigotes, 3.9; in data set [3], 2.1. Moreover, the IC50 in data set [2] was 40.5 ± 8.7 µM; with T. cruzi epimastigotes, 13.1 ± 0.5 µM; in data set [3] it was 24.3 ± 0.8 µM.
In data set [1], `C=CC(=O)OCc1ccc2c(c1)-c1cc(OC)ccc1OC2(C)C` [4j, (2-Methoxy-6,6-dimethyl-6H-benzo[c]chromen-9-yl)methyl acrylate] gave an IC50 at 72 h of 40.1 ± 12.6 µM. In addition, the selectivity ratio at 72 h (in data set [2] (setting [4]); in the data set on T. cruzi epimastigotes; in data set [3] (setting [5])) was more than 5 in each case. In addition, the IC50 came out at 6.9 ± 1.7 µM in data set [2], 7.4 ± 0.9 µM with T. cruzi epimastigotes and 5.7 ± 0.5 µM in data set [3].
`COc1ccc2c(c1)-c1cc(COC(=O)c3ccco3)ccc1C(C)(C)O2` [4k, (2-Methoxy-6,6-dimethyl-6H-benzo[c]chromen-9-yl)methyl furan-2-carboxylate] returned an IC50 at 72 h in data set [1] of 30.5 ± 3.6 µM. The selectivity ratio at 72 h in data set [2] (setting [4]) is 2.4; in the data set with T. cruzi epimastigotes, 7.9; in data set [3] (setting [5]) it was 2.4. In addition, the values for the IC50 (in data set [2]; with T. cruzi epimastigotes; in data set [3]) were 12.8 ± 1.8 µM, 3.8 ± 0.3 µM and 12.8 ± 0.1 µM, respectively.
Consider `COc1ccc2c(c1)-c1cc(COC(=O)c3ccccc3)ccc1C(C)(C)O2` [4l, (2-Methoxy-6,6-dimethyl-6H-benzo[c]chromen-9-yl)methyl benzoate], for which the IC50 at 72 h in data set [1] came out at 27.8 ± 10.7 µM. The selectivity ratio at 72 h in data set [2] (setting [4]) was 1.3; in the data set with T. cruzi epimastigotes it was 4.7; in data set [3] (setting [5]), 1.3. Moreover, the IC50 in data set [2] was determined as 21.9 ± 7.7 µM; in the data set with T. cruzi epimastigotes it was 5.9 ± 0.5 µM; in data set [3], 21 ± 4.3 µM.
`COc1ccc2c(c1)-c1cc(C=O)ccc1C(C)(C)O2` [5a, 2-Methoxy-6,6-dimethyl-6H-benzo[c]chromene-9-carbaldehyde] had an IC50 at 72 h in data set [1] of 38.8 ± 3.7 µM. For the same molecule, the selectivity ratio at 72 h in data set [2] (setting [4]) amounted to 1.3; in the data set on T. cruzi epimastigotes, 1.6; in data set [3] (setting [5]) it was 1.6. Further, the IC50 in data set [2] came out at 29.8 ± 11.2 µM; in the data set on T. cruzi epimastigotes, 24.2 ± 4.1 µM; in data set [3], 24.2 ± 7.5 µM.
As for `COc1ccc2c(c1)-c1cc(C(C)=O)ccc1C(C)(C)O2` [5b, 1-(2-Methoxy-6,6-dimethyl-6H-benzo[c]chromen-9-yl)ethan-1-one], the IC50 at 72 h in data set [1] stood at 31.9 ± 7.1 µM. In addition, the selectivity ratio at 72 h in data set [2] (setting [4]) is 0.7; in the data set with T. cruzi epimastigotes, 1.5; in data set [3] (setting [5]), 1.1. The figures for the half-inhibitory concentration (IC50) (in data set [2]; in the data set with T. cruzi epimastigotes; in data set [3]) were 43.2 ± 8.2 µM, 21.2 ± 9.2 µM and 28.3 ± 7.1 µM, respectively.
As for `COc1ccc2c(c1)-c1cc(C(=O)O)ccc1C(C)(C)O2` [5c, 2-Methoxy-6,6-dimethyl-6H-benzo[c]chromene-9-carboxylic acid], in data set [1], the midpoint of inhibition, the IC50 at 72 h, lay at 246 ± 24.6 µM. The selectivity ratio at 72 h turned out to be 1.2 in data set [2] (setting [4]), 4.4 in the data set with T. cruzi epimastigotes and 3.8 in data set [3] (setting [5]). The IC50 in data set [2] was determined as 199 µM; in the data set with T. cruzi epimastigotes, 56.3 µM; in data set [3] it was 65.1 ± 16.5 µM.
